This is an account of results in patent US11540518B2, “Fungicidal oxadiazoles” (FMC Corporation, priority 2017, dated 2023).

What all share (assay type): in vivo
In test [1] the test system is Zymoseptoria tritici. In words: Test B: wheat leaf blotch control on wheat seedlings. The note with it: 250 ppm (incl. values marked * = tested at 250 ppm), sprayed to run-off on wheat seedlings, inoculated the following day; 100 = 100% disease control, 0 = no control. The source says:
General protocol for preparing test suspensions for Tests A-C: the test compounds were first dissolved in acetone in an amount equal to 3% of the final volume and then suspended at the desired concentration (in ppm) in acetone and purified water (50/50 mix by volume) containing 250 ppm of the surfactant PEG400 (polyhydric alcohol esters). The resulting test suspensions were then used in Tests A-C. The test solution was sprayed to the point of run-off on wheat seedlings. The following day the seedlings were inoculated with a spore suspension of Zymoseptoria tritici (the causal agent of wheat leaf blotch) and incubated in a saturated atmosphere at 24° C. for 48 h, and then moved to a growth chamber at 20° C. for 17 days, after which time disease ratings were made. Results for Tests A-C are given in Table A. In the Table, a rating of 100 indicates 100% disease control and a rating of 0 indicates no disease control (relative to the controls). A dash (-) indicates the compound was not tested.

For test [2], the system named is Puccinia recondita f. sp. tritici. The experiment in a line: Test C: wheat leaf rust control on wheat seedlings. The note with it: sprayed to run-off on wheat seedlings, inoculated the following day, 100 = 100% disease control, 0 = no control; for pest or weed control at 250 ppm: Puccinia recondita, 168 h, read-out: Test C disease control rating. In short, it runs like this:
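Wheat seedlings were sprayed to run-off with compound suspension (ppm, acetone/water with 250 ppm PEG400), then inoculated with Puccinia recondita f. sp. tritici spores the next day. Plants were held 24 h in saturated atmosphere at 20 °C, then 6 days in a 20 °C growth chamber. Disease control is rated 0-100% relative to untreated controls.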

The subject of test [3] is Phakopsora pachyrhizi. In words: Test A: Asian soybean rust control on soybean seedlings. The note with it: sprayed to run-off on soybean seedlings, inoculated the following day, 100 = 100% disease control, 0 = no control; for pest or weed control at 250 ppm: Phakopsora pachyrhizi, 216 h, read-out: Test A disease control rating. In short, it runs like this:
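Compounds in acetone/water (50/50) with 250 ppm PEG400 were sprayed to run-off on soybean seedlings, which were inoculated with P. pachyrhizi spores the next day. Plants were held in saturated atmosphere at 22° C for 24 h, then 8 days at 22° C, before visual rating (0–100% disease control vs controls).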

The structures appear in SMILES notation.

Regarding `NC(=O)OCc1ccc(-c2noc(C(F)(F)F)n2)cc1Cl` [Compound 86], the “Test B disease control rating” value in test [1] is given as 94%. For the same compound, the “Test C disease control rating” value in test [2] (250 ppm) turned out to be 100%. Moreover, in test [3] (250 ppm), the “Test A disease control rating” value is given as 100%.
Consider `CC(C)(OC(N)=O)c1ccc(-c2noc(C(F)(F)F)n2)cc1` [Compound 87], for which the “Test B disease control rating” value in test [1] is recorded as 99%. In test [2] (250 ppm), the “Test C disease control rating” value amounted to 100%. For the same compound, in test [3] (250 ppm), the “Test A disease control rating” value is 100%.
`NC(=O)OCc1cccc(-c2noc(C(F)(F)F)n2)c1` [Compound 93]: in test [1], the “Test B disease control rating” value stood at 97%. The “Test C disease control rating” value in test [2] (250 ppm) amounted to 100%. Also, the “Test A disease control rating” value in test [3] (250 ppm) came to 100%.
With `CNC(=O)OCc1cccc(-c2noc(C(F)(F)F)n2)c1` [Compound 94], the “Test B disease control rating” value in test [1] is given as 1%. Also, the “Test C disease control rating” value in test [2] (250 ppm) stood at 100%. For the same compound, in test [3] (250 ppm), the “Test A disease control rating” value is listed as 69%.
As to `CCNC(=O)OCc1cccc(-c2noc(C(F)(F)F)n2)c1` [Compound 95], the “Test B disease control rating” value in test [1] is 3%. The “Test C disease control rating” value in test [2] (250 ppm) is on record as 100%. Further, the “Test A disease control rating” value in test [3] (250 ppm) stood at 99%.
Taken in the same sequence, the figures for `C#CCNC(=O)OCc1cccc(-c2noc(C(F)(F)F)n2)c1` [Compound 96] were 64%, 100% and 100%.
As to `C=CCNC(=O)OCc1cccc(-c2noc(C(F)(F)F)n2)c1` [Compound 97], the “Test B disease control rating” value in test [1] was 52%. Besides, the “Test C disease control rating” value in test [2] (250 ppm) amounted to 100%. The “Test A disease control rating” value in test [3] (250 ppm) is 100%.
On to `C=C(C)CNC(=O)OCc1cccc(-c2noc(C(F)(F)F)n2)c1` [Compound 98], for which the “Test B disease control rating” value in test [1] came to 3%. Moreover, in test [2] (250 ppm), the “Test C disease control rating” value amounted to 100%. For the same compound, the “Test A disease control rating” value in test [3] (250 ppm) was 100%.
Consider `CN(C)C(=O)OCc1cccc(-c2noc(C(F)(F)F)n2)c1` [Compound 99], for which the “Test B disease control rating” value in test [1] is on record as 0%. The “Test C disease control rating” value in test [2] (250 ppm) turned out to be 55%. In test [3] (250 ppm), the “Test A disease control rating” value is reported as 0%.
`Cc1ccc(C(OC(=O)n2ccnc2)c2ccc(-c3noc(C(F)(F)F)n3)cc2)cc1` (stereo not drawn) [Compound 100]: the “Test B disease control rating” value in test [1] stood at 98%. For the same compound, the “Test C disease control rating” value in test [2] (250 ppm) is 97%. Further, in test [3] (250 ppm), the “Test A disease control rating” value was found to be 100%.
Taken in the same sequence, the figures for `NC(=O)OC(c1ccc(-c2noc(C(F)(F)F)n2)cc1)c1cccc(Cl)c1` (stereo not drawn) [Compound 101] were 90%, 99% and 100%.
Taken in the same sequence, the figures for `CNC(=O)OC(c1ccc(-c2noc(C(F)(F)F)n2)cc1)c1cccc(Cl)c1` (stereo not drawn) [Compound 102] were 96%, 90% and 100%.
Take `CCNC(=O)OC(c1ccc(-c2noc(C(F)(F)F)n2)cc1)c1cccc(Cl)c1` (stereo not drawn) [Compound 103]: the “Test B disease control rating” value in test [1] came to 20%. For the same compound, the “Test C disease control rating” value in test [2] (250 ppm) is 86%. Besides, the “Test A disease control rating” value in test [3] (250 ppm) is recorded as 100%.
On to `C#CCNC(=O)OC(c1ccc(-c2noc(C(F)(F)F)n2)cc1)c1cccc(Cl)c1` (stereo not drawn) [Compound 104], for which the “Test B disease control rating” value in test [1] turned out to be 84%. Also, in test [2] (250 ppm), the “Test C disease control rating” value is listed as 80%. The “Test A disease control rating” value in test [3] (250 ppm) is 100%.
Regarding `COC(=O)NN=Cc1ccc(-c2noc(C(F)(F)F)n2)cc1` [Compound 105, methyl 2-[[4-[5-(trifluoromethyl)-1,2,4-oxadiazol-3-yl]phenyl]methylene]-hydrazinecarboxylate], the “Test B disease control rating” value in test [1] is 99%. Moreover, the pest or weed control at 250 ppm in test [2] (250 ppm) and in test [3] (250 ppm) was 100% in each case.
Regarding `NC(=O)OC(c1ccc(F)cc1)c1ccc(-c2noc(C(F)(F)F)n2)cc1` (stereo not drawn) [Compound 112], the “Test B disease control rating” value in test [1] turned out to be 85%. Besides, in test [2] (250 ppm), the “Test C disease control rating” value stood at 100%. In test [3] (250 ppm), the “Test A disease control rating” value worked out at 100%.
Turning to `CNC(=O)OC(c1ccc(F)cc1)c1ccc(-c2noc(C(F)(F)F)n2)cc1` (stereo not drawn) [Compound 113], in test [1], the “Test B disease control rating” value is listed as 82%. Moreover, the “Test C disease control rating” value in test [2] (250 ppm) is on record as 100%. Further, the “Test A disease control rating” value in test [3] (250 ppm) came to 100%.
Turning to `CCNC(=O)OC(c1ccc(F)cc1)c1ccc(-c2noc(C(F)(F)F)n2)cc1` (stereo not drawn) [Compound 114], the “Test B disease control rating” value in test [1] worked out at 9%. The “Test C disease control rating” value in test [2] (250 ppm) is 100%. In addition, the “Test A disease control rating” value in test [3] (250 ppm) amounted to 100%.
As to `O=C(OCc1cccc(-c2noc(C(F)(F)F)n2)c1)n1ccnc1` [Compound 123], the “Test B disease control rating” value in test [1] is 0%. Moreover, the pest or weed control at 250 ppm in test [2] (250 ppm) came out at 96%; in test [3] (250 ppm), 100%.
In the case of `CCOC(=O)NN=Cc1ccc(-c2noc(C(F)(F)F)n2)s1` [Compound 124], the “Test B disease control rating” value in test [1] is recorded as 73* %. The “Test C disease control rating” value in test [2] (50 ppm) was 100%. Moreover, the “Test A disease control rating” value in test [3] (50 ppm) came to 100%.
As for `O=C(OC(c1ccc(-c2noc(C(F)(F)F)n2)cc1)c1cccc(F)c1)n1ccnc1` (stereo not drawn) [Compound 125], the “Test B disease control rating” value in test [1] stood at 97%. Also, the “Test C disease control rating” value in test [2] (250 ppm) was found to be 100%. In addition, the “Test A disease control rating” value in test [3] (250 ppm) is recorded as 100%.
On to `O=C(OC(c1ccc(-c2noc(C(F)(F)F)n2)cc1)c1cccc(Cl)c1)n1ccnc1` (stereo not drawn) [Compound 126], for which the “Test B disease control rating” value in test [1] is reported as 88* %. In test [2] (10 ppm), the “Test C disease control rating” value came out at 0%. Moreover, the “Test A disease control rating” value in test [3] (10 ppm) is reported as 99%.
With `O=C(OC(c1ccc(F)cc1)c1ccc(-c2noc(C(F)(F)F)n2)cc1)n1ccnc1` (stereo not drawn) [Compound 127], the “Test B disease control rating” value in test [1] worked out at 99%. Besides, the “Test C disease control rating” value in test [2] (250 ppm) came to 100%. The “Test A disease control rating” value in test [3] (250 ppm) worked out at 100%.
In the case of `Cc1ccccc1C(OC(N)=O)c1ccc(-c2noc(C(F)(F)F)n2)cc1` (stereo not drawn) [Compound 128], in test [1], the “Test B disease control rating” value was 88%. Moreover, the “Test C disease control rating” value in test [2] (250 ppm) came to 100%. Further, the “Test A disease control rating” value in test [3] (250 ppm) was 100%.
As to `CNC(=O)OC(c1ccc(-c2noc(C(F)(F)F)n2)cc1)c1ccccc1C` (stereo not drawn) [Compound 129], the “Test B disease control rating” value in test [1] is 74%. Also, the “Test C disease control rating” value in test [2] (250 ppm) came to 100%. In test [3] (250 ppm), the “Test A disease control rating” value was 100%.
Consider `NC(=O)OC(c1ccc(-c2noc(C(F)(F)F)n2)cc1)c1cccc(F)c1` (stereo not drawn) [Compound 131], for which the “Test B disease control rating” value in test [1] is given as 96%. The “Test C disease control rating” value in test [2] (250 ppm) is given as 100%. Also, in test [3] (250 ppm), the “Test A disease control rating” value was 100%.
Take `CNC(=O)OC(c1ccc(-c2noc(C(F)(F)F)n2)cc1)c1cccc(F)c1` (stereo not drawn) [Compound 132]: the “Test B disease control rating” value in test [1] was 95%. Also, the “Test C disease control rating” value in test [2] (250 ppm) came to 100%. Further, in test [3] (250 ppm), the “Test A disease control rating” value turned out to be 100%.
As to `CCNC(=O)OC(c1ccc(-c2noc(C(F)(F)F)n2)cc1)c1cccc(F)c1` (stereo not drawn) [Compound 133], the “Test B disease control rating” value in test [1] turned out to be 99%. Besides, in test [2] (250 ppm), the “Test C disease control rating” value is on record as 100%. Moreover, the “Test A disease control rating” value in test [3] (250 ppm) is given as 100%.
In the case of `CN(C)C(=O)OC(c1ccc(-c2noc(C(F)(F)F)n2)cc1)c1cccc(F)c1` (stereo not drawn) [Compound 134], the “Test B disease control rating” value in test [1] is 50%. Further, the “Test C disease control rating” value in test [2] (250 ppm) is given as 89%. For the same compound, the “Test A disease control rating” value in test [3] (250 ppm) was determined as 100%.
Taken in the same sequence, the figures for `C#CCNC(=O)OC(c1ccc(-c2noc(C(F)(F)F)n2)cc1)c1cccc(F)c1` (stereo not drawn) [Compound 135] were 88%, 100% and 100%.
Take `CNC(=O)OC(c1ccccc1)c1ccc(-c2noc(C(F)(F)F)n2)cc1` (stereo not drawn) [Compound 137]: the “Test B disease control rating” value in test [1] worked out at 70%. The “Test C disease control rating” value in test [2] (250 ppm) is recorded as 100%. For the same compound, in test [3] (250 ppm), the “Test A disease control rating” value came out at 100%.
Take `C=CCNC(=O)OC(c1ccccc1)c1ccc(-c2noc(C(F)(F)F)n2)cc1` (stereo not drawn) [Compound 138]: the “Test B disease control rating” value in test [1] was 99%. Besides, in test [2] (250 ppm), the “Test C disease control rating” value was 100%. The “Test A disease control rating” value in test [3] (250 ppm) amounted to 100%.
Regarding `CCCNC(=O)OC(c1ccccc1)c1ccc(-c2noc(C(F)(F)F)n2)cc1` (stereo not drawn) [Compound 139], in test [1], the “Test B disease control rating” value came to 56%. Besides, in test [2] (250 ppm), the “Test C disease control rating” value is recorded as 100%. The “Test A disease control rating” value in test [3] (250 ppm) was found to be 100%.
